Results taken from patent US20230003721A1, “MITOTHERAPEUTICS FOR THE TREATMENT OF BRAIN DISORDERS” (The University of Florida Research Foundation, Inc., priority 2019, published 2023).
Structures can show the parent of a compound that is named as a salt. Where two headings read alike, the source gives them in different places.

Columns and labels:
[1] = system: primary forebrain neurons; conditions: 48 h; for live:dead cell ratio in the presence of toxic concentrations of glutamate: 25 μM glutamate; for death among neurons compared to control: Aβ(1-42) 10 μM
[2] = system: primary forebrain neurons; assay: cells; conditions: for EC50: Mus musculus, Neuron; for EC50 / Dendritic Mt CA / Neurite Area: 24 h; for Dendritic Mt CA / Neurite Area: rescreen, 12.5 μM, vs DMSO wells
Procedure: Primary forebrain cell culture and maintenance. Forebrains of P0 Mt or Mt/Ai14 pups without olfactory bulbs and meninges were collected and placed in ice cold Ca^2+ and Mg^2+ free HBSS supplemented with 2 μg/ml gentamicin, 25 mM D-glucose, 1 mM pyruvate and 20 mM HEPES. Brain tissue was digested with 0.6 mg/ml papain at 37° C. for 20 min. Forebrains were washed with plating media [Neurobasal (Gibco), 5% FBS, 4 mM GlutaMAX (Gibco), 2 μg/ml gentamicin]. The tissue was gently triturated, allowed to settle and the supernatant was filtered through a 40 μm mesh-sized cell strainer. Cells were centrifuged at 420×g for 4 min and resuspended in plating media. 15,000 cells per well were plated with 2×10^8 viral particles/ml onto black Greiner μClear (Cat #781946) or Ultra-Low Base Aurora with evaporation barrier (Cat #ABE201201B) 384-well plates (80 μl/well) pre-coated with poly-D-lysine for the primary screen and rescreen, respectively. Plating and media changes were performed using an automated Biomek FX^P liquid handling workstation. Four hr after plating, 75% of the plating media was replaced by feeding media [Neurobasal-A (Gibco), 4 mM GlutaMAX (Gibco), 2 μg/ml gentamicin, 2% B27 (Gibco)]. At DIV4, 50% of the media was exchanged with fresh feeding media supplemented with 16 μM 5-Fluoro-2′-deoxyuridine (FUdR) to prevent glial cell over-growth. At DIV8 and DIV12, additional 50% media changes were made without FUdR. Cells were maintained at 37° C. and 5% CO2; plates were topped with Breathe-Easy adhesive membranes (Greiner plates) to minimize evaporation.
Compounds and compound transfer.
Imaging. Images were captured using a GE Incell 6000 system (60× objective, 0.95 NA, 16-bit images) equipped with environmental control (37° C., 5% CO2). Mt-GFP (green channel) was imaged by confocal imaging (3 slices, Δz=0.7 μm, aperture=1.0 AU, λexc=488 nm, λem=515-535 nm). Cyto-tdTomato (red channel) and MitoTracker Orange (red channel) were imaged using confocal mode (3 slices, Δz=0.7 μm, aperture=1.0 AU, λexc=561 nm, λem=569-641 nm, MitoTracker Orange) or with widefield mode (Cyto-tdTomato). TMRM imaged for the co-localization experiments with Mt-GFP was imaged using the confocal mode (3 slices, […] aperture=1.0, λexc=488, λem=569-641 nm). For the live-dead assay, primary neurons were imaged with a 20× (widefield mode, NA 0.45) objective using λexc=561 nm and λem=569-641 nm for the propidium iodide stained dead cells (red channel), and λexc=488 nm and λem=515-535 nm for the fluorescein diacetate stained live cells (green channel). 10 fields were collected from each well, and 4 wells were imaged/condition in the live-dead assay. For all other experiments, 4 fields/well were imaged unless otherwise stated.
Automated data analysis pipeline. Most experiments utilized only Mt-GFP; some utilized both Mt-GFP and Cyto-tdTomato. The Z-projected images were preprocessed using a custom Fiji macro. For preprocessing of Mt-GFP images: background was subtracted (rolling ball, radius=3), images were median filtered (radius=1) and somatic mitochondria were removed. For removal of the somatic mitochondria, they were first segmented and then a somatic mitochondrial mask overlaid on the image.

[3] = system: isolated forebrain mitochondria; assay: ATP production of isolated mitochondria (luciferase-based kinetic assay); format: biochemical, mouse; conditions: for ATP production kinetics, amplitude of single exponential fit: 12 μM, starting 20 min after addition, DMSO 22498±358; for ATP production of isolated mitochondria (direct effect): 12.5 μM, within the 45-min measurement period, vs DMSO
Procedure: Isolation of mitochondria. For the ATP synthesis experiments of FIG. 6, forebrains from P0 pups were dissected as described above. 2×10^7 cells were harvested for high-purity mitochondrial isolation using the Qiagen QProteome kit. The mitochondrial pellet was resuspended in 500 μl mitochondria storage buffer (provided by kit) and kept on ice until further use.
ATP production of isolated forebrain mitochondria of P0 pups was measured by ATP Determination Kit (Molecular Probes). […] The reactions were initiated by the addition of 1 mM ADP (deprived of ATP contamination by adding 3 U/ml hexokinase to 10 mM of ADP in 50 mM Tris-HCl, 20 mM MgCl2 and 22 mM glucose, incubating the solution at 37° C. for 1 hr and heat inactivating the hexokinase at 100° C. for 3 min). Luminescence was recorded every 15-30 sec for 1 hr at 580±40 nm.

primary neurons [4] = conditions: for protection from peroxide (PO) induced mitochondrial fragmentation: 75 μM peroxide
primary neurons [5] = assay: TMRM fluorescence assay of inner mitochondrial membrane potential (ΔΨm); conditions: for TMRM Primary: primary screen, 12.5 μM; for TMRM Primary / TMRM Rescreen: 24 h; for Emax / EC50: Mus musculus, Primary neuron; for Emax: read-out: TMRM (Effect-size); for EC50: read-out: TMRM-EC50
primary neurons [6] = assay: CellTiter-Glo luminescence-based ATP assay; format: cell-based, mouse; conditions: for ATP: ATP orthogonal screen, 24 h; for EC50 / Emax: Mus musculus, Primary neuron, dose response; for EC50: 15 concentrations from 6 nM to 100 uM; for Emax: maximal percent increase relative to in-plate DMSO controls, read-out: ATP (Effect-size)
Summary of the method: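 Primary neurons treated from DIV13 for 24 h with compound or DMSO. After part of the medium was removed, CellTiter-Glo reagent was added; plates were shaken 10 min at 200 rpm, kept 2 min in the dark at room temperature, and luminescence read as total ATP.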

Drosophila model for AD = assay: Drosophila model for AD: neuronal mitochondrial morphology; format: in vivo; conditions: cell bodies of neurons; 100 micromolar, 15 days-of-age
Description: To assay representative compounds in this example, we employed a Drosophila model for AD (X. Wang et al., Mol. Neurobiol. […] Flies expressing this toxic protein show: […] Drugs that show efficacy therefore: enlarge neuronal mitochondria (increased volume, increased surface area, increased length), reduce sphericity, and reduce the number of mitochondria compared to untreated Alzheimer's flies. The AD model flies were collected immediately after eclosion from the pupal case and transferred to food that was laced with drug at 100 micromolar concentration. The flies were aged to 15 days-of-age: this is when the mitochondrial pathology is very robust. We compared the morphology of mitochondria collected from these flies treated with drug and compared them to the mitochondria of flies that remained untreated.

[7] = read-out: Health (Ax Mt Circularity) EC50
[8] = read-out: Sprouting (Neurite Area) EC50
[9] = read-out: Elongation (Dend Mt length) EC50
[10] = read-out: Mt Content (Dend Mt CA) EC50
[11] = peroxide 75 μM, glutamate 25 μM

EC50 (primary neurons [5]) [µM]	Compound	live:dead cell ratio in the presence of toxic concentrations of glutamate [1]	EC50 [2, 7] [µM]	EC50 [2, 8] [µM]	Dendritic Mt CA [2] [robust Z-scores]	Neurite Area [2] [robust Z-scores]	ATP production kinetics, amplitude of single exponential fit [3]	ATP production of isolated mitochondria (direct effect) [3]	EC50 [2, 10] [µM]	protection from peroxide (PO) induced mitochondrial fragmentation (primary neurons [4]; 12.5 μM compound, 48 h)	TMRM Primary (primary neurons [5]) [Z-scores]	TMRM Rescreen (primary neurons [5]) [Z-scores]	ATP (primary neurons [6]) [Z-scores]	Emax (primary neurons [5]) [%]	EC50 (primary neurons [6]) [µM]	Emax (primary neurons [6]) [%]	also measured
	O=C(/C=C/c1ccccc1)c1ccc(O)cc1O [2′,4′-DIHYDROXYCHALCONE]	offered protection	6.7	> 25	3.39	0.42	9853±132	decreased									
	O=C(/C=C/c1ccccc1)c1ccc(O)cc1 [4′-HYDROXYCHALCONE]	offered protection	5.8	0.9	5.11	2.21	6121±99	decreased	4.8	fully protected							EC50 [2, 9]: 2.3 µM
	CCN(CCCc1ccccc1)CCCc1ccccc1 [ALVERINE CITRATE]	offered protection	0.3	> 25	5.09	−1.50	28383±278	significantly increased	0.2	fully protected	4.24	4.15	4.56				EC50 [2, 9]: 2.9 µM; ATP production in neurons (primary neurons [6]; after 24 hr of treatment): increased; protection from glutamate (GLUT) induced mitochondrial fragmentation (primary neurons [4]; 25 μM glutamate, 12.5 μM compound, 48 h): fully protected
	N#CC(C#N)=NNc1ccc(OC(F)(F)F)cc1 [FCCP, carbonyl cyanide-p-trifluoromethoxyphenylhydrazone]						17958±216										average area of axonal mitochondria [2]: 0.39 μm^2; average area of dendritic mitochondria [2]: 1.06 μm^2; average well axonal mitochondrial CA [2]: 629±83 μm^2; average well dendritic mitochondrial CA [2]: 123±44 μm^2; increase in axonal mitochondrial CA [2]: 225 μm^2; median axonal mitochondrial circularity [2]: 0.94±0.004; median dendritic mitochondrial length [2]: 2.77±0.07 μm; number of axonal mitochondria [2]: 51767; number of dendritic mitochondria [2]: 3713; sum of dendritic and axonal mitochondrial CA [2]: 754 μm^2; reduction in the average dendritic mitochondrial CA per well ([2]; FCCP treatment vs DMSO): ~90%
0.35	COc1ccccc1OCCNCC(O)COc1cccc2[nH]c3ccccc3c12 (stereo not shown) [carvedilol]										4.11	5.71	5.32	20.2	0.23	15.9	Surface area of mitochondria, p (treated vs untreated) (Drosophila model for AD): p = 0.078
	N[C@@H](CCC(=O)O)C(=O)[O-].[Na+] [glutamate, monosodium glutamate]																death among neurons compared to control [1, 11]: 42%; live cell ratio (live cells/live+dead cells) ([1]; peroxide 75 μM, glutamate 25 μM, control 0.57): 0.26
0.13	O=c1[nH]c2ccccc2n1C1CCN(CCCC(c2ccc(F)cc2)c2ccc(F)cc2)CC1 [pimozide]										2.65	3.74	6.60	25.1	0.09	20.4	Surface area of mitochondria, p (treated vs untreated) (Drosophila model for AD): p = 0.017
	Aβ(1-40): less-toxic oligomeric amyloid-β peptide used as control																mitochondrial fragmentation caused by oligomeric peptide (primary neurons [4]): failed to cause mitochondrial fragmentation
	Aβ(1-42): toxic amyloid-β peptide fragment, oligomeric, HFIP-treated peptide (BACHEM)																death among neurons compared to control [1, 11]: no detectable death

Compound	EC50 (primary neurons [5]) [µM]	live:dead cell ratio in the presence of toxic concentrations of glutamate [1]	EC50 [2, 7] [µM]	EC50 [2, 8] [µM]	Dendritic Mt CA [2] [robust Z-scores]	Neurite Area [2] [robust Z-scores]	ATP production kinetics, amplitude of single exponential fit [3]	ATP production of isolated mitochondria (direct effect) [3]	EC50 [2, 10] [µM]	protection from peroxide (PO) induced mitochondrial fragmentation (primary neurons [4]; 12.5 μM compound, 48 h)	TMRM Primary (primary neurons [5]) [Z-scores]	TMRM Rescreen (primary neurons [5]) [Z-scores]	ATP (primary neurons [6]) [Z-scores]	Emax (primary neurons [5]) [%]	EC50 (primary neurons [6]) [µM]	Emax (primary neurons [6]) [%]	also measured
COc1ccccc1N1CCN(CC(O)COc2cccc3ccccc23)CC1 (stereo not shown) [NAFTOPIDIL]	2.24		0.2	0.5	4.86	2.41	49917±838	significantly increased	0.1	fully protected	3.64	9.07	3.62	18.8	0.23	15	
